Key:
Frs2β (+/+) CAFs = assay: Migration (mobilization) of CAFs in co-culture; format: cell-based, mouse; details: single inhibitor alone, 100 μg/ml; data not shown
Description: FIG. 4A-I CXCL12 produced from precancerous Frs2β (+/+) mammary cells induce tumor spheres and migration of CAFs. (A) Schematic of co-culture of Frs2β (+/+) tumor cells to form spheres in the lower chamber with Frs2β (+/+) precancerous mammary epithelial cells in the upper chamber. (B) Representative images of tumor sphere formation in the presence of Frs2β (+/+) mammary epithelial cells treated with control IgG (400 nM) or IGF1 neutralizing antibody (Nab) (400 nM). N.T., not treated (without co-culture with mammary epithelial cells). Scale bar: 100 ∝μ. (C) Quantification of tumor sphere-forming efficiency. Results are shown as means±SEM. n=4. ***p<0.001, **p<0.01. (D) Schematic of co-culture of Frs2β (+/+) or Frs2β (−/−) mammary cells in the lower chamber with Frs2β (+/+) or Frs2β (−/−) CAFs in the upper chamber. (E) Expression levels of Cxcl12 was compared between Frs2β (+/+) or Frs2β (−/−) mammary cells on the […] by qPCR. Results were shown as mean±SEM. n=6. * * *p<0.001. (F) Representative images of migrated Frs2β (+/+) CAFs co-cultured with Frs2β (+/+) or Frs2β (−/−) mammary cells in the […] for 24 hours. (G) Quantification of migrated Frs2β (+/+) CAFs. Results were shown as mean±SEM. n=4. **p<0.01. […] (I) Quantification of the migrated CAFs co-cultured with Frs2β (+/+) cancer cells for 24 hr. […]

[1] = test system: Frs2β (+/+) precancerous mammary epithelial cells; assay: qPCR of NFkB target gene expression in cultured precancerous mammary epithelial cells; format: cell-based, mouse; details: in vitro, dose-dependent
From the text: (§1) FIG. 5A-K FRS2β-dependent increase in activation of AKT-NFκB increases the production of IGF1 and CXCL12, promoting tumorigenesis. (A) Schematic of DHMEQ treatment of cultured Frs2β (+/+) precancerous mammary epithelial cells in vitro. (B) Expression levels of Igf1, Cxcl12, and IκBα in Frs2β (+/+) precancerous mammary epithelial cells treated with the indicated concentration of DHMEQ were compared by qPCR. Results are shown as means±SEM. n=4. **p<0.01. (C) Immunoblotting analysis of the indicated proteins in the lysate of Frs2β (+/+) or Frs2β (−/−) precancerous mammary tissues. Actin was used as a loading control. (D) Immunoblotting analysis of cytoplasmic and nuclear expression levels of the indicated proteins (control as a nuclear protein) in the lysate of Frs2β (+/+) or Frs2β (−/−) mammary tissues. PARP1 was used as a representative protein in nucleus. Actin was used as a loading control. (E) Immunoblotting analysis of the indicated proteins in the lysate of Frs2β (+/+) or Frs2β (−/−) mammary tissues. Actin was used as a loading control. (F) Schematic of DHMEQ treatment of Frs2β (+/+) mice in vivo. The mice were intraperitoneally injected with 10 μg/g DHMEQ once a day for 3 weeks. (G) Immunohistochemical staining for Frs2β (+/+) mammary tissues with or without 3-week treatment with 10 μg/g DHMEQ, or Frs2β (−/−) mammary tissues, using antibodies against RelA. Scale bar: 50 ∝μ. (H) Expression levels of Igf1 and Cxcl12 in Frs2β (+/+) mammary tissues, with or without 3-week treatment with 10 μg/g DHMEQ. N.T., not treated. Results are shown as means±SEM. n=4. ***p<0.001 and **p<0.01 (I) Treatment of mice with a CXCR7 inhibitor and/or an IGF1 antibody reduces tumor volume. Frs2β (+/+) tumor sphere cells were inoculated into mammary fat pads of 8-week-old virgin female MMTV-neu (+)/Frs2β (+/+) mice. After 7 days, the mice were intraperitoneally injected with 0.1 μg/g IGF1 antibody (R&D Biosystems) once per week and/or 1 μg/g of AMD3100 (Sigma) one a day and 1.5 μg/g of Compound 1 once a day. […] Tumor volumes (J) and weights (K) were measured in mice treated as in (I). […]

Frs2β (+/+) mice = assay: DHMEQ treatment in vivo: RelA localization and cytokine transcripts in precancerous mammary tissues; design: species or system mouse; details: 10 μg/g intraperitoneally once a day for 3 weeks
From the text: as §1

SMILES | mobilization of CAFs (Frs2β (+/+) CAFs) | expression of Cxcl12 [1] | expression of Igf1 [1] | expression of IkBa [1] | expression of Cxcl12 transcripts in precancerous mammary tissues (Frs2β (+/+) mice) | expression of Igf1 transcripts in precancerous mammary tissues (Frs2β (+/+) mice) | number of Frs2β (+/+) precancerous luminal cells harboring RelA in the nucleus (Frs2β (+/+) mice; immunohistochemistry)
c1cc(CN2CCCNCCNCCCNCC2)ccc1CN1CCCNCCNCCCNCC1 [AMD3100] | did not observe significant effects |  |  |  |  |  | 
O=C(NC1=CC(=O)[C@H]2O[C@H]2[C@H]1O)c1ccccc1O [DHMEQ] |  | inhibited | inhibited | inhibited | inhibited | inhibited | dramatically decreased
CC(C)c1cc(N2CCCN(Cc3csc(-c4ccccc4)n3)CC2)c2ncccc2c1 [Compound 1] | did not observe significant effects |  |  |  |  |  | 

— patent US11464786B2, “CXCR7 inhibitors for the treatment of cancer” (CHEMOCENTRYX, INC., priority 2018, dated 2022)
